Read-outs that look alike come from different tables or passages of the source.
What was measured:
[1] = target: T1, 5-HT1A receptor (Homo sapiens, UniProt P08908); assay: 5-HT receptor radioligand binding affinity assay, 1A; conditions: for SI, selectivity index, 1A: subtype Ki divided by 5-HT2C Ki
T1 construct: expressed in transfected cells; host or cells: HEK293 or CHO
T1 sequence (P08908 1-422): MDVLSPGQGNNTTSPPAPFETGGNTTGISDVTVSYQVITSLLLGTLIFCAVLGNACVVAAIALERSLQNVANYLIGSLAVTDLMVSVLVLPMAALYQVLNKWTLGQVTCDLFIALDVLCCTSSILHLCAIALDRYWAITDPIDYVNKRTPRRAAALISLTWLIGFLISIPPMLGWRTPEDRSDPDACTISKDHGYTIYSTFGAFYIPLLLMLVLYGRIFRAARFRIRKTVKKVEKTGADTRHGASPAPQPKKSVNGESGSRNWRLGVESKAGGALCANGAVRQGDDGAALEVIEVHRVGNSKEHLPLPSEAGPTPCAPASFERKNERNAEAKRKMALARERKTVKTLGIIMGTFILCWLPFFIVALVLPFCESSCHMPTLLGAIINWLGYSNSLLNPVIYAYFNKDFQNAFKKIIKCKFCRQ
Protocol: (§1) Eleven dilutions (5 x assay concentration) of the test and reference compounds (Table S1) were prepared in standard binding buffer (50 mM tris(hydroxymethyl)-aminomethane–HCl (Tris-HCl), 10 mM MgCl2, 1 mM ethylenediaminetetraacetate (EDTA), pH 7.4) by serial dilution: 0.05 nM, 0.5 nM, 1.5 nM, 5 nM, 15 nM, 50 nM, 150 nM, 500 nM, 1.5 μM, 5 μM, and 50 μM. The radioligand (Table S1) was diluted to five times the assay concentration in standard binding buffer. Aliquots (50 μL) of the radioligand were dispensed into the wells of a 96-well plate containing 100 μL of standard binding buffer. Triplicate aliquots (50 μL) of the test and reference compound dilutions were then added. Finally, crude membrane fractions (50 μL) of cells (HEK293 or CHO) expressing human recombinant receptors were dispensed into each well. A total 250 μL of the reaction mixtures was incubated at room temperature and shielded from light for 1.5 h, then harvested by rapid filtration onto Whatman GF/B glass fiber filters presoaked with 0.3% polyethyleneimine, by using a 96-well Brandel harvester.
(§2) Four rapid washes were performed with chilled standard binding buffer (500 μL) to decrease nonspecific binding. Filters were placed in 6 mL scintillation tubes and allowed to dry overnight. The next day, 4 ml of EcoScint scintillation cocktail (National Diagnostics) was added to each tube. The tubes were capped, labeled, and counted by liquid scintillation counting. The filter mats were dried, and the scintillant was melted onto the filters, then the radioactivity retained on the filters was counted in a Microbeta scintillation counter. The IC50 values were obtained by using the Prism 4.0 program (GraphPad Software, San Diego, CA) and converted into Ki values. Each compound was tested in triplicate at least.
(§3) 3. Radioligands and reference compounds for binding assay
(§4) Table S1. A list of 5-HT receptor radioligands and reference compounds for binding assay.
(§5) Receptor subtype Radioligand Reference compound
(§6) 1A [3H]8-OH-DPAT Methysergide
(§7) 2A [3H]Ketanserin Chlorpromazine
(§8) 2C [3H]Mesulergine Chlorpromazine

[2] = target: T2, 5-HT1B receptor (Homo sapiens, UniProt P28222); assay: 5-HT receptor radioligand binding affinity assay, 1B
T2 construct: expressed in transfected cells; host or cells: HEK293 or CHO

[3] = target: T3, 5-HT1D receptor (Homo sapiens, UniProt P28221); assay: 5-HT receptor radioligand binding affinity assay, 1D; conditions: for SI, selectivity index, 1D: subtype Ki divided by 5-HT2C Ki
T3 construct: expressed in transfected cells; host or cells: HEK293 or CHO
Protocol: as §1, §2, §3, §4, §5, §6, §7, §8

[4] = target: T4, 5-HT1E receptor (Homo sapiens, UniProt P28566); assay: 5-HT receptor radioligand binding affinity assay, 1E
T4 construct: expressed in transfected cells; host or cells: HEK293 or CHO
Protocol: as §1, §2, §3
(§9) Table S1. A list of 5-HT receptor radioligands and reference compounds for binding assay. […]

[5] = target: T5, 5-HT2A receptor (Homo sapiens, UniProt P28223); assay: 5-HT receptor radioligand binding affinity assay, 2A; conditions: for SI, selectivity index, 2A: subtype Ki divided by 5-HT2C Ki
T5 construct: expressed in transfected cells; host or cells: HEK293 or CHO
Protocol: as §1, §2, §3, §4, §5, §6, §7, §8

[6] = target: T6, 5-HT2B receptor (Homo sapiens, UniProt P41595); assay: 5-HT receptor radioligand binding affinity assay, 2B; conditions: for SI, selectivity index, 2B: subtype Ki divided by 5-HT2C Ki
T6 construct: expressed in transfected cells; host or cells: HEK293 or CHO
Protocol: as §1, §2, §3, §4, §5, §6, §7, §8

[7] = target: T7, 5-HT3 receptor (Homo sapiens, UniProt P46098); assay: 5-HT receptor radioligand binding affinity assay, 3; conditions: for SI, selectivity index, 3: subtype Ki divided by 5-HT2C Ki
T7 construct: expressed in transfected cells; host or cells: HEK293 or CHO
T7 sequence (P46098 24-478): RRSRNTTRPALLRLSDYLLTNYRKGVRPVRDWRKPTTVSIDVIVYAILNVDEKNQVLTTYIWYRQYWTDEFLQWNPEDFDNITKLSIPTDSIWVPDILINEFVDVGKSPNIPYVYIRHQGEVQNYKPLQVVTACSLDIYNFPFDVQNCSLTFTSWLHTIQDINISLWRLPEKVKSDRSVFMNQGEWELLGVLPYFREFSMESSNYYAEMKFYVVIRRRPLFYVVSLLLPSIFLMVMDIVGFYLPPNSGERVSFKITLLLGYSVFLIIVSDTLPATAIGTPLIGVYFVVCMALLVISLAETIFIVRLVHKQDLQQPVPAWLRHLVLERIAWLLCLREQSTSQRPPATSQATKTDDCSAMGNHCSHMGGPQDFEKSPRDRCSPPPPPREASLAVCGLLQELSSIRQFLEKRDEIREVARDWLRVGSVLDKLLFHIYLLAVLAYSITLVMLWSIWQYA
Protocol: as §1, §2, §3, §4, §5, §6, §7, §8

[8] = target: T8, 5-HT5A receptor (Homo sapiens, UniProt P47898); assay: 5-HT receptor radioligand binding affinity assay, 5A
T8 construct: expressed in transfected cells; host or cells: HEK293 or CHO
Protocol: as §1, §2, §3, §9

[9] = target: T9, 5-HT6 receptor (Homo sapiens, UniProt P50406); assay: 5-HT receptor radioligand binding affinity assay, 6; conditions: for SI, selectivity index, 6: subtype Ki divided by 5-HT2C Ki
T9 construct: expressed in transfected cells; host or cells: HEK293 or CHO
Protocol: as §1, §2, §3, §4, §5, §6, §7, §8

[10] = target: T10, 5-HT7 receptor (Homo sapiens, UniProt P34969); assay: 5-HT receptor radioligand binding affinity assay, 7; conditions: for SI, selectivity index, 7: subtype Ki divided by 5-HT2C Ki
T10 construct: expressed in transfected cells; host or cells: HEK293 or CHO
Protocol: as §1, §2, §3, §4, §5, §6, §7, §8

[11] = Plasma stability; assay type: in vitro ADME; conditions: human plasma, 37 °C
[12] = Microsomal stability; assay type: in vitro ADME; conditions: pH 7.4, human liver microsomes, read-out: HLM %Remaining @ 1 μM after 0.5 h
Protocol: To human liver microsomes (0.5 mg/mL) were added 0.1 M phosphate buffer (pH 7.4) and tested compounds (1 μM).

[13] = target: T11, 5-HT2C receptor (Homo sapiens, UniProt P28335); assay: 5-HT receptor radioligand binding affinity assay, 2C; parameters: expressed in transfected cells; conditions: for %Binding at 10 μM, 2C: Table 3; for %binding / Ki: Table 2; for SI, selectivity index, 2C: subtype Ki divided by 5-HT2C Ki
T11 sequence (P28335 33-458): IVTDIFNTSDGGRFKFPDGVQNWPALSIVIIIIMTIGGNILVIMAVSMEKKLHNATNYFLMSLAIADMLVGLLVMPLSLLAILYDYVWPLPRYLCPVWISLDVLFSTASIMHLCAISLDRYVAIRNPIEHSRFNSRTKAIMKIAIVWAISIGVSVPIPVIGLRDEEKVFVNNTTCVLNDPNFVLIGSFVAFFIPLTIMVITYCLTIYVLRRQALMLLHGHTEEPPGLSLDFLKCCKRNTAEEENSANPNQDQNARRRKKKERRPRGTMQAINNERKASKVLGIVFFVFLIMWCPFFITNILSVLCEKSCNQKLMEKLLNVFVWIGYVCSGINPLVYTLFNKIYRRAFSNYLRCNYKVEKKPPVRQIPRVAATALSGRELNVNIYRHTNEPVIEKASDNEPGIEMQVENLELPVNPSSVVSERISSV
Protocol: as §1, §2, §3, §4, §5, §6, §7, §8

[14] = system: five human CYP450 isozymes; assay: CYP inhibition, all tested isozymes; conditions: all the tested CYP isozymes
Protocol: CYP inhibition values against five human CYP450 isozymes were recorded as % remaining activity values of the given isozymes.
After incubation at 37 °C for 5 min, NADPH generation system solution was also added and incubated at 37 °C for 15 min again. To terminate the reaction, acetonitrile including internal standard (Terfenadine) was added, and the solution was centrifuged for 5 min (14,000 rpm, 4 °C).

[15] = target: T11, 5-HT2C receptor; assay: 5-HT2C receptor cell-based functional assay (agonist mode, fluorescence-based); conditions: Table 2; serotonin as reference compound
Protocol: The synthesized compounds were tested in agonist mode with the 5-HT2C receptor assay using recombinant human HEK-293 cells serviced by either Eurofins Cerep or DGMIF (Daegu-Gyeongbuk Medical Innovation Foundation). All the experiments were duplicated.

[16] = target: T5, 5-HT2A receptor; parameters: method as in PMID 28846591; conditions: Figure 2; cited from earlier work

T3 sequence (P28221 whole entry): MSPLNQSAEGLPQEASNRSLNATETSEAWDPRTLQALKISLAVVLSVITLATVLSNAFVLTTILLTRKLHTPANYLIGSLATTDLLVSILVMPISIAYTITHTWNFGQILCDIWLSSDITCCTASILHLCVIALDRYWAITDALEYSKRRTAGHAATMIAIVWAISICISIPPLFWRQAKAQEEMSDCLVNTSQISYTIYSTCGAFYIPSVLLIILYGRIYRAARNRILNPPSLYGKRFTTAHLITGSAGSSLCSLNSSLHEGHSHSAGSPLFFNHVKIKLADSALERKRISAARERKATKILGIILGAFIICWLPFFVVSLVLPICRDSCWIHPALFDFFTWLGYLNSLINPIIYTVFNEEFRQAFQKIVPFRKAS
T9 sequence (P50406 whole entry): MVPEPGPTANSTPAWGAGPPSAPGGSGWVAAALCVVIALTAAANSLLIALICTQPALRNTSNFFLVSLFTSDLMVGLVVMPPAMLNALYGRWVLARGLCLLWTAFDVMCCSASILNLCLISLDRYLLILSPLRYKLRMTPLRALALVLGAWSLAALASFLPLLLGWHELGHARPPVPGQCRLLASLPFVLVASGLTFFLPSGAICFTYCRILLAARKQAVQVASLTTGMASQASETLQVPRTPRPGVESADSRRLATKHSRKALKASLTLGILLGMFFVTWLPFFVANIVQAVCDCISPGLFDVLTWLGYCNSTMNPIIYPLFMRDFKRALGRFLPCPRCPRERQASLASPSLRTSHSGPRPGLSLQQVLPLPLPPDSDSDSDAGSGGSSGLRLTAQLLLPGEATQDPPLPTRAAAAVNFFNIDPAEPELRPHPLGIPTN
T6 sequence (P41595 whole entry): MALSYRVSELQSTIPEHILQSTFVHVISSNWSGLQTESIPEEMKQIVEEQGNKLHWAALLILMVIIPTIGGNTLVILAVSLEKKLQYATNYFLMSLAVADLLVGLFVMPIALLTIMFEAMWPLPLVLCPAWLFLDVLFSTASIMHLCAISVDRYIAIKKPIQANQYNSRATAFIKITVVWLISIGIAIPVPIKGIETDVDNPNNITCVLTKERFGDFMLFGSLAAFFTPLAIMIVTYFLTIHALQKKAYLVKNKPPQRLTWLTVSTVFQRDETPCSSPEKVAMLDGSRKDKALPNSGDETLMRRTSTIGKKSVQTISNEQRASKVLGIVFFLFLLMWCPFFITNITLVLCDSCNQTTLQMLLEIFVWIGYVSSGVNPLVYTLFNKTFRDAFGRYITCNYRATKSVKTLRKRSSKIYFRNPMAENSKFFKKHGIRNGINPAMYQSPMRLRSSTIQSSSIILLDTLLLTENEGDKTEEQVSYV
T5 sequence (P28223 whole entry): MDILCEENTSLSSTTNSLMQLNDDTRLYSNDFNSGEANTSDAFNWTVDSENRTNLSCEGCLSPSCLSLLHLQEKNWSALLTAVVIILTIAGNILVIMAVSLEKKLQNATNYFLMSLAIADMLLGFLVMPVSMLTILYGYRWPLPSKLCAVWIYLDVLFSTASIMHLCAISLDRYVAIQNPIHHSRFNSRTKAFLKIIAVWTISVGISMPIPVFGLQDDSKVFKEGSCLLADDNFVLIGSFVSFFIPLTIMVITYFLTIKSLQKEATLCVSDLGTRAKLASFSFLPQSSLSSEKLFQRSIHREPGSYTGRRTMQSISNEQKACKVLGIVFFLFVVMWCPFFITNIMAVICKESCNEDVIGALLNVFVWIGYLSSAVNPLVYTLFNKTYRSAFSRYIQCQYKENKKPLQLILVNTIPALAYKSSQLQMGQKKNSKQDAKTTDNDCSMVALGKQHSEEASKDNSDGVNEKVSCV
T10 sequence (P34969 whole entry): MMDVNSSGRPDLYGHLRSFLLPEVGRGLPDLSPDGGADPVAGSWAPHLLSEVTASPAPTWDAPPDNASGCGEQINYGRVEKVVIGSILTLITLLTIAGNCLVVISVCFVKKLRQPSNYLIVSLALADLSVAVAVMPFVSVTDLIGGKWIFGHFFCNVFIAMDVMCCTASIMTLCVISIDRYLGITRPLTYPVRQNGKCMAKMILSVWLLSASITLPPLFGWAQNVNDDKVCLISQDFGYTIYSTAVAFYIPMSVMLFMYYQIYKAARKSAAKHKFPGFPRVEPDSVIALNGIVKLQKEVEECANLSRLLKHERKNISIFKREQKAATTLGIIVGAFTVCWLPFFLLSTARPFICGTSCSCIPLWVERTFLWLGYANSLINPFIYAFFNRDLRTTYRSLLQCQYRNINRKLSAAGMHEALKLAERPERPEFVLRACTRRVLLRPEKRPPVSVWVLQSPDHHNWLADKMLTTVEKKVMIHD
T2 sequence (P28222 whole entry): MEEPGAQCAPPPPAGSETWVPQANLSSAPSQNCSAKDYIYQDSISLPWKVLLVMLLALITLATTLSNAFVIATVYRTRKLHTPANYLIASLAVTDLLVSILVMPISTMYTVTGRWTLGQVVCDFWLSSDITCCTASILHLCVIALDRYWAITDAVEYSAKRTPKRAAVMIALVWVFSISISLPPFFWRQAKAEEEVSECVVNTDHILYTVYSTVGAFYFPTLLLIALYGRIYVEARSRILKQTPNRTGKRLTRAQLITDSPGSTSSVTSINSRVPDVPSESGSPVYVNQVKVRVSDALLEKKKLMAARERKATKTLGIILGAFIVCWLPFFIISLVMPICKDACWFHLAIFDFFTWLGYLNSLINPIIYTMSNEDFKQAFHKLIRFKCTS
T8 sequence (P47898 whole entry): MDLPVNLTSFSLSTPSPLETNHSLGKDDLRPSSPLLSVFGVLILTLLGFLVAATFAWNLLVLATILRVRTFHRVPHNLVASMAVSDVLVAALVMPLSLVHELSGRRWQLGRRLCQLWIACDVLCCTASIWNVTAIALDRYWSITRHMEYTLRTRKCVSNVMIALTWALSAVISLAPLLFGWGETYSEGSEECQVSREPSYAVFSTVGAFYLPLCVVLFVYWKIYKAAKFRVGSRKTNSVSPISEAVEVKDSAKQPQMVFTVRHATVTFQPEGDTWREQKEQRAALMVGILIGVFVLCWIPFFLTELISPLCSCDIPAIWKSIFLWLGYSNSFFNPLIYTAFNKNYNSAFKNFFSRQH
T4 sequence (P28566 whole entry): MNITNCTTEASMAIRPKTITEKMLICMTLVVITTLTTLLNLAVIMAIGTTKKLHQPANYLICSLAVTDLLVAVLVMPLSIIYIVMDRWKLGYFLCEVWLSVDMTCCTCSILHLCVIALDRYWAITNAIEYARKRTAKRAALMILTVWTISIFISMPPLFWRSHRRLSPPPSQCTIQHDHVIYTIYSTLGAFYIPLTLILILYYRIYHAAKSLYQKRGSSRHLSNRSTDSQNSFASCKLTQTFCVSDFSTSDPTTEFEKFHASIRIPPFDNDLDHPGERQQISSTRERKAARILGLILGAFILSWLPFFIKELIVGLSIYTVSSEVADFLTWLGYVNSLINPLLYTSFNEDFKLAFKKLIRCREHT

C[C@@H](Oc1nc(N2CCCNCC2)ncc1F)c1cccc(F)c1 [10a, (R)-1-(5-fluoro-4-(1-(3-fluorophenyl)ethoxy)pyrimidin-2-yl)-1,4-diazepane]
Ki [1]: 578 nM
%Binding at 10 μM, 1A [1]: 74.1%
SI, selectivity index, 1A [1]: 73.2
Ki [2]: 3240 nM
%Binding at 10 μM, 1B [2]: 56.1%
SI, selectivity index, 1B ([2]; subtype Ki divided by 5-HT2C Ki): 409.7
Ki [3]: 679 nM
%Binding at 10 μM, 1D [3]: 71.4%
SI, selectivity index, 1D [3]: 85.9
%Binding at 10 μM, 1E [4]: 43.1 /ND^b %
Ki [5]: 1280 nM
%Binding at 10 μM, 2A [5]: 75.5%
SI, selectivity index, 2A [5]: 162.5
Ki [6]: 83 nM
%Binding at 10 μM, 2B [6]: 98.0%
SI, selectivity index, 2B [6]: 10.5
Ki [7]: 323 nM
%Binding at 10 μM, 3 [7]: 89.0%
SI, selectivity index, 3 [7]: 40.9
%Binding at 10 μM, 5A [8]: 22.5 /ND %
Ki [9]: 348 nM
%Binding at 10 μM, 6 [9]: 50.7%
SI, selectivity index, 6 [9]: 44.1
Ki [10]: 1020 nM
%Binding at 10 μM, 7 [10]: 61.3%
SI, selectivity index, 7 [10]: 128.6
remaining at 0.5 h, 10 μM ([11]; 0.5 h, read-out: Plasma Stability %Remaining @ 10 μM after 0.5 h): 99.9%
remaining at 2 h, 10 μM ([11]; 2 h, read-out: Plasma Stability %Remaining @ 10 μM after 2 h): 98%
remaining at 0.5 h, 1 μM [12]: 96.6%
%Binding at 10 μM, 2C [13]: 81.3%
selectivity for other 5-HT receptor subtypes, difference in potency ([13]; 5-HT2C versus other 5-HT receptor subtypes): greater than 10 fold
%binding [13]: 81.3%
Ki [13]: 7.9 nM
SI, selectivity index, 2C [13]: 1.0
%remaining activity of isozymes [14]: > 60%
%activation [15]: 81.0%

C[C@@H]1CNCCN1c1ncc(F)c(O[C@H](C)c2ccc(F)cc2)n1 [compound 8, reference compound]
Ki [1]: 271 nM
%Binding at 10 μM, 1A [1]: 89.1%
SI, selectivity index, 1A [1]: 45.9
%Binding at 10 μM, 1B [2]: 4.9 /ND^b %
Ki [3]: 1050 nM
%Binding at 10 μM, 1D [3]: 83.4%
SI, selectivity index, 1D [3]: 178.3
%Binding at 10 μM, 1E [4]: 48.0 /ND^b %
Ki [5]: 511 nM
%Binding at 10 μM, 2A [5]: 85.3%
SI, selectivity index, 2A [5]: 86.6
Ki [6]: 38 nM
%Binding at 10 μM, 2B [6]: 98.1%
SI, selectivity index, 2B [6]: 6.4
Ki [7]: 543 nM
%Binding at 10 μM, 3 [7]: 83.4%
SI, selectivity index, 3 [7]: 92.0
%Binding at 10 μM, 5A [8]: 18.5 /ND^b %
Ki [9]: 30 nM
%Binding at 10 μM, 6 [9]: 56.7%
SI, selectivity index, 6 [9]: 5.1
Ki [10]: 528 nM
%Binding at 10 μM, 7 [10]: 63.4%
SI, selectivity index, 7 [10]: 89.5
Ki [16]: 1280 nM
%Binding at 10 μM, 2C [13]: 89.0%
%binding [13]: 89.0%
Ki [13]: 5.9 nM
SI, selectivity index, 2C [13]: 1.0
